These results are taken from patent US20060280690A1, “Methods of preparing a foam comprising a sclerosing agent” (priority 2003, published 2006).

The series in a line: In vitro absorption of foam/gas in fresh human venous blood. It is filed as in vitro ADME. The following applies: 0.5 ml aliquot in 20 ml blood. Here is the method: In vitro experiments were conducted to determine the absorption of foam made with different gases in fresh human venous blood.
A 20 ml polypropylene syringe barrel was prepared by puncturing its side wall with a relatively large hypodermic needle to make a hole approximately 1 mm in diameter. This hole was then covered by securing a piece of clear flexible vinyl sheet over it with clear adhesive tape. A small magnetic stirrer element was introduced into the syringe barrel and the plunger then replaced. 20 ml of human venous blood was then with withdrawn in the usual manner from a human subject using the specially prepared syringe fitted with a hypodermic needle.
The hypodermic needle was removed and the syringe then placed on a magnetic stirrer unit so that the magnetic element in the syringe thoroughly agitated the blood. The Luer nozzle of the syringe was then connected to a 50 cm piece of manometer tubing which was arranged horizontally and left open at one end. The manometer tubing was secured against a scale.
A 0.5 ml measuring syringe with a fine pre-fitted needle was then filled with foam made from 1% polidocanol solution and air. The density of the foam was 0.13 g/ml (±0.03 g/ml), the liquid component making up approximately 13% of the total volume of foam (±3%).
The needle of the 0.5 ml syringe was then introduced through the vinyl sheet on the side wall of the 20 ml syringe. […] The 0.5 ml aliquot of foam was then injected quickly and simultaneously a timer started (t0). As the foam displaced blood in the 20 ml syringe, the column of blood from the 20 ml syringe was displaced into the manometer tubing and the distance along the tubing reached by the distal end of the blood column was noted against the scale. The scale itself comprised spaced marker lines equally spaced at about 1 cm intervals. It was determined that a distance of 45 intervals on this scale corresponded to an internal volume of in the manometer tubing of approximately 0.5 ml.
As the gas in the foam started to be absorbed by the blood, the blood in the manometer tubing started to recede back towards the syringe. After the column appeared to have stopped moving, the timer was stopped (tF). The position of the distal end was again noted.
In this experiment, the air foam test was only observed for a few minutes after tF. However, further experiments have been conducted by the inventors, the results of which are not formally recorded here, involving foam with a percentage of nitrogen. A 20 ml syringe of fresh human venous blood, as in the above experiments, was injected with a 0.5 ml aliquot of a foam containing a percentage of nitrogen. The contents of the syringe were agitated as above and a period of 24 hours allowed to elapse.

On to `O=O` [Oxygen, oxygen], for which the “Absorbed volume at tF” value was 0.46 mL, the Unabsorbed gas % worked out at 8% and the Unabsorbed gas ml stood at 0.04 mL. Also, under “time until blood column stopped moving”, the “tF” value was found to be 140 s.
